Assays:
Format in all cases: biochemical
CLK1 = CLK1 (Homo sapiens (Human), UniProt P49759); assay: Inhibition of CLK1 kinase activity evaluated at Nanosyn (ADP-Glo); details: ADP-Glo luminescence
Procedure: (§1) Inhibition of CLK, CLK2, CLK3 and CLK4 Kinase Activity Evaluated at Nanosyn
(§2) Kinase protein and substrate were pre-diluted in the HEPES assay buffer (100 mM HEPES, pH 7.5, 0.01% Triton X-100, 0.1% BSA, 5 mM MgCl2, […] DTT, 10 Sodium Orthovanadate, […] Beta-Glycerophosphate) dispensed into 384 well plate (5 μL per well). Control samples (0%-inhibition in the absence of inhibitor, DMSO only) and 100%-inhibition (in the absence of enzyme) were assembled in replicates of six and were used to calculate %-inhibition in the presence of compounds. Test compounds were added to the protein samples by acoustic dispensing (Labcyte Echo550). Concentration of DMSO was equalized to 1% in all samples. Reactions were initiated by addition of ATP by acoustic dispensing (Labcyte Echo550) and incubated according to assay specific incubation time. After incubation. 5 μL of Promega ADP-Glo reagent was added and incubated for 40 minutes. After 40 minutes, 10 uL of Promega kinase detection reagent was added. After 10 min of incubation with Kinase detection reagent, the luminescence was read on microplate reader (Biotek Synergy).

CLK3 = CLK3 (Homo sapiens (Human), UniProt P49761); assay: Inhibition of CLK3 kinase activity evaluated at Nanosyn (ADP-Glo); details: ADP-Glo luminescence
Procedure: as §1, §2

CLK2 = CLK2 (Homo sapiens (Human), UniProt P49760); assay: Inhibition of CLK2 kinase activity evaluated at Nanosyn (ADP-Glo); details: ADP-Glo luminescence
Sequence of CLK2 (P49760 whole entry): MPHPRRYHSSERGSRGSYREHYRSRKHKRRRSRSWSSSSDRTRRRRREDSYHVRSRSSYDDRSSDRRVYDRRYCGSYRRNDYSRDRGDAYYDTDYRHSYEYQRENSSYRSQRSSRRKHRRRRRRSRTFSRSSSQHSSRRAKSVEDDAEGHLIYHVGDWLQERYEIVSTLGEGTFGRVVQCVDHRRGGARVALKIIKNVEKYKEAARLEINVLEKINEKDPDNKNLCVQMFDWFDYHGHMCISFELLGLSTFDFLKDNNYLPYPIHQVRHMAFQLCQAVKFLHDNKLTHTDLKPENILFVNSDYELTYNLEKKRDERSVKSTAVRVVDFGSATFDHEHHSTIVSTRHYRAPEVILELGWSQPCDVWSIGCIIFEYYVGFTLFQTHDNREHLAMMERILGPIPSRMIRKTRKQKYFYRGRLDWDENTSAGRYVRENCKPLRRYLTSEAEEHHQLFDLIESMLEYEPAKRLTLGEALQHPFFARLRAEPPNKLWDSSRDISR
Procedure: as §1, §2

CLK4 = CLK4 (Homo sapiens (Human), UniProt Q9HAZ1); assay: Inhibition of CLK4 kinase activity evaluated at Nanosyn (ADP-Glo); details: ADP-Glo luminescence
Sequence of CLK4 (Q9HAZ1 whole entry): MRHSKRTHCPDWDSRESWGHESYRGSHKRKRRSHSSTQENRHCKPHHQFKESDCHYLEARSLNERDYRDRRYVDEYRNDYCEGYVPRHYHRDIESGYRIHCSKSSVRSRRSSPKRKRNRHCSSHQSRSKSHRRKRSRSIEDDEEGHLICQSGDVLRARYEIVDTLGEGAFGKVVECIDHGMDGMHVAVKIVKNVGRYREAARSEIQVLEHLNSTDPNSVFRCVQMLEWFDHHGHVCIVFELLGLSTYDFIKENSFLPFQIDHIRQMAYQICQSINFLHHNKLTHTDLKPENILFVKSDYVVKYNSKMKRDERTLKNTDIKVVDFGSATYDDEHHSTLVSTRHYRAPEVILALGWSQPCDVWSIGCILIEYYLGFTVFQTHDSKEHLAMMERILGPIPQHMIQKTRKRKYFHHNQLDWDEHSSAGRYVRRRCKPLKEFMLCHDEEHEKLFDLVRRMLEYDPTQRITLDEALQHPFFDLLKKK
Procedure: as §1, §2

[1] = molecular target: EGFR Δ746-750/C797S mutant (Homo sapiens (Human), UniProt P00533, C797S/DEL746-750); assay: HotSpot radiometric kinase assay, EGFR Δ746-750/C797S mutant; details: 10 μM ATP
Sequence of EGFR Δ746-750/C797S mutant (P00533 other isoform, or with tags, fused parts or gaps C797S/del 1-668/del 746-750 limits assumed): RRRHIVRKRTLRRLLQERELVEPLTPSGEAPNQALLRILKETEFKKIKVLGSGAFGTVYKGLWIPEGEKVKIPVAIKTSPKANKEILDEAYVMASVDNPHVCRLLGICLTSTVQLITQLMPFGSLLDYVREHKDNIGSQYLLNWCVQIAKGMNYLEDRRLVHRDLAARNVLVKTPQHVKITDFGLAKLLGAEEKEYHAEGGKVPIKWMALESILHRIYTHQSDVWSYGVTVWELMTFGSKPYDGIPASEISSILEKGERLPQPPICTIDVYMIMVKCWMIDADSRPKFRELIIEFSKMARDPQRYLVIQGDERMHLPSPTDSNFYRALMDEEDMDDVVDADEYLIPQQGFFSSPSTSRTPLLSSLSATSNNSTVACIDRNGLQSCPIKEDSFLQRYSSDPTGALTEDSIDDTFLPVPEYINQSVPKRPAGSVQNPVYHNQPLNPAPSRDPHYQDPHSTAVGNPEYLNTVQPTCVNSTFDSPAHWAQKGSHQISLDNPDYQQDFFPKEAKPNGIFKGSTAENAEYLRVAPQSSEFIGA
How it was run: (§3)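 IC50 values come from curve fits of ^33P incorporation captured on P81 filters after acid washing. Kinase reactions ran 120 min at room temperature with 10 μM ATP, added about 20 min after compound. Buffer was Hepes pH 7.5 containing Mg, DTT and 1% DMSO.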

EGFR (D770_N771insNPG) = EGFR (D770_N771insNPG) (Homo sapiens (Human), UniProt P00533, INS770NPG); assay: HotSpot radiometric kinase assay, EGFR (D770_N771insNPG); details: 10 μM ATP, read-out: EGFR (Δ770_N771insNPG) IC50
Sequence of EGFR (D770_N771insNPG) (P00533 other isoform, or with tags, fused parts or gaps del 1-668/ins NPG behind 770 limits assumed): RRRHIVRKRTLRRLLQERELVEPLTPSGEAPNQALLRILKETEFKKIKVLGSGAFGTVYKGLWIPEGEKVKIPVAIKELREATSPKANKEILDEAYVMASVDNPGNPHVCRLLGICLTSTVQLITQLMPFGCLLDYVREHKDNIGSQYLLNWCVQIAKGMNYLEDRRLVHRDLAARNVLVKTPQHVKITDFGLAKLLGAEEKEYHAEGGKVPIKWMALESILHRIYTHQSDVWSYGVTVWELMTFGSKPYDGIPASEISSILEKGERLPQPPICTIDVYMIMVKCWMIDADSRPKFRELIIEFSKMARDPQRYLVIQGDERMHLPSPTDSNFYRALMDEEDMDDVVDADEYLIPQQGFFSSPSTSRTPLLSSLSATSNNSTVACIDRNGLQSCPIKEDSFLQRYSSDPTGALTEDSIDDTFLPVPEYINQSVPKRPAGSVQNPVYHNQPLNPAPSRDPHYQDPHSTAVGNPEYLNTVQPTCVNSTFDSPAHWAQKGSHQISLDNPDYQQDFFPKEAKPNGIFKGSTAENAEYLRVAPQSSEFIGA
How it was run: as §3

EGFR L858R mutant = EGFR L858R mutant (Homo sapiens (Human), UniProt P00533, L858R); assay: HotSpot radiometric kinase assay, EGFR L858R mutant; details: 10 μM ATP
How it was run: as §3

[2] = molecular target: EGFR L858R/T790M/C797S mutant (Homo sapiens (Human), UniProt P00533, C797S/L858R/T790M); assay: HotSpot radiometric kinase assay, EGFR L858R/T790M/C797S mutant; details: 10 μM ATP
Sequence of EGFR L858R/T790M/C797S mutant (P00533 25-1210 T790M/C797S/L858R): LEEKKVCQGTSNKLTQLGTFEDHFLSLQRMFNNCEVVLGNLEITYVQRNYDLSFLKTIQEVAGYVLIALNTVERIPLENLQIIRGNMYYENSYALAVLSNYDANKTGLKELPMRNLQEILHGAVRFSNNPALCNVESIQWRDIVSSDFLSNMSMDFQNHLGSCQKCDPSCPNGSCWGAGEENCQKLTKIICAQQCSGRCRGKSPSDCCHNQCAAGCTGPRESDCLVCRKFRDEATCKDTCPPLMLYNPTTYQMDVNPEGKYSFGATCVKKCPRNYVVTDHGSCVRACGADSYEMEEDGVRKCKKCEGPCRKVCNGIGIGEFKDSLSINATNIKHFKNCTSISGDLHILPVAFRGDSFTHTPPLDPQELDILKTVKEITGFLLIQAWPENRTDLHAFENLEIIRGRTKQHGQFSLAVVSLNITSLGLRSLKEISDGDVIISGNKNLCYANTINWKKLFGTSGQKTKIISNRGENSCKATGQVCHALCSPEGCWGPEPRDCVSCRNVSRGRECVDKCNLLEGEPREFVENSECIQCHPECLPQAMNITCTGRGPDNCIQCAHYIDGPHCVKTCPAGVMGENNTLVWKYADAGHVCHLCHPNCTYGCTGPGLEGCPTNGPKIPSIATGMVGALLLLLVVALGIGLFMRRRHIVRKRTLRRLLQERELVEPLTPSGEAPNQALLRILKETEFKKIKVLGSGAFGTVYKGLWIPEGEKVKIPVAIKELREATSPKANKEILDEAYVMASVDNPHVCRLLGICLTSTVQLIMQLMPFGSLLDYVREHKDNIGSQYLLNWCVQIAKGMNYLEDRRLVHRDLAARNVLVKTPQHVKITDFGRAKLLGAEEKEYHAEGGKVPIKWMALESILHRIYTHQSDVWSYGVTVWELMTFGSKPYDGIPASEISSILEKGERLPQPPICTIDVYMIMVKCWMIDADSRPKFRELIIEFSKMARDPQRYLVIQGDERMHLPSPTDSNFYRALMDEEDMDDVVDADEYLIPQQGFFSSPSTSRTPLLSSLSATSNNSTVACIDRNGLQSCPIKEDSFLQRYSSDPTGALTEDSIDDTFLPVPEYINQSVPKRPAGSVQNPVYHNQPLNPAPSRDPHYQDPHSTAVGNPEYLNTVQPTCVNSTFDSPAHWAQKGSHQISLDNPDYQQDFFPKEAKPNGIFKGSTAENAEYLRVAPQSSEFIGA
How it was run: as §3

EGFR L858R/T790M mutant = EGFR L858R/T790M mutant (Homo sapiens (Human), UniProt P00533, L858R/T790M); assay: HotSpot radiometric kinase assay, EGFR L858R/T790M mutant; details: 10 μM ATP
Sequence of EGFR L858R/T790M mutant (P00533 25-1210 T790M/L858R): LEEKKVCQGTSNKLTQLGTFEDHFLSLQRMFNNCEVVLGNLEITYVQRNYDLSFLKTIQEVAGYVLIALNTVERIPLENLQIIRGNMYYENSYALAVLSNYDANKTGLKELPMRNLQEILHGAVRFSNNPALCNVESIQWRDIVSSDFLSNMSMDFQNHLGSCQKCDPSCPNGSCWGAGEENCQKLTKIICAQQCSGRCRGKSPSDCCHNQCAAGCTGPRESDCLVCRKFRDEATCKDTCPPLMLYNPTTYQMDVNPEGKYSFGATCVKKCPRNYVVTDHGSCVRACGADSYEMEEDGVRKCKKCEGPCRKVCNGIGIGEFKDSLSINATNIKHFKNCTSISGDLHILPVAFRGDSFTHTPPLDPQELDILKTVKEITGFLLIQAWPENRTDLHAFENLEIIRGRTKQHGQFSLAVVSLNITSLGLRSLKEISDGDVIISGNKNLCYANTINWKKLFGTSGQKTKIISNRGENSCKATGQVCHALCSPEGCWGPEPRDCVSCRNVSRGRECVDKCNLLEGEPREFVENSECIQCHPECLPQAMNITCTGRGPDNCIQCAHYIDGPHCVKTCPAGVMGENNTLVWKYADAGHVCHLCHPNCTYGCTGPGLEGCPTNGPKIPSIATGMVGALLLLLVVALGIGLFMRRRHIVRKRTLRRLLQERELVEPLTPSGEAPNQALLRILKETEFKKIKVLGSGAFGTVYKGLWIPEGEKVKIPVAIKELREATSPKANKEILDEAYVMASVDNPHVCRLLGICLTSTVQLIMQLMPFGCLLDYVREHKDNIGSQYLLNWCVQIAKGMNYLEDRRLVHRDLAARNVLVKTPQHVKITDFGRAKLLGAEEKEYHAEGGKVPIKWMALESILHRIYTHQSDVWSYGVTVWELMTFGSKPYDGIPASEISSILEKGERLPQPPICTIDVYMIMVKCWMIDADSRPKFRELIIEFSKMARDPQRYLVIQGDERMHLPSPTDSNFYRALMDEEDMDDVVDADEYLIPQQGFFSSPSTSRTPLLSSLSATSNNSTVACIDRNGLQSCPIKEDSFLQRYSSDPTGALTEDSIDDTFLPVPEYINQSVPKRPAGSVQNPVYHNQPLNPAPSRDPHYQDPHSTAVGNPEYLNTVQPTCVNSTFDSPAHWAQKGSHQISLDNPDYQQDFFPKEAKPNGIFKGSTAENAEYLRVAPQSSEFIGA
How it was run: as §3

EGFR WT = EGFR WT (Homo sapiens (Human), UniProt P00533); assay: HotSpot radiometric kinase assay (Reaction Biology), EGFR WT; details: 10 μM ATP
How it was run: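 10 μM ATP (33P-labelled, final); 120 min RT; P81 filter capture, 0.75% phosphoric acid washes. Cpd preincubated ~20 min with enzyme/substrate, 20 mM Hepes pH 7.5, 10 mM MgCl2, 1% DMSO. IC50 by curve fit.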

EGFR Δ746-750 mutant = EGFR Δ746-750 mutant (Homo sapiens (Human), UniProt P00533, DEL746-750); assay: HotSpot radiometric kinase assay, EGFR Δ746-750 mutant; details: 10 μM ATP
Sequence of EGFR Δ746-750 mutant (P00533 other isoform, or with tags, fused parts or gaps del 1-668/del 746-750 limits assumed): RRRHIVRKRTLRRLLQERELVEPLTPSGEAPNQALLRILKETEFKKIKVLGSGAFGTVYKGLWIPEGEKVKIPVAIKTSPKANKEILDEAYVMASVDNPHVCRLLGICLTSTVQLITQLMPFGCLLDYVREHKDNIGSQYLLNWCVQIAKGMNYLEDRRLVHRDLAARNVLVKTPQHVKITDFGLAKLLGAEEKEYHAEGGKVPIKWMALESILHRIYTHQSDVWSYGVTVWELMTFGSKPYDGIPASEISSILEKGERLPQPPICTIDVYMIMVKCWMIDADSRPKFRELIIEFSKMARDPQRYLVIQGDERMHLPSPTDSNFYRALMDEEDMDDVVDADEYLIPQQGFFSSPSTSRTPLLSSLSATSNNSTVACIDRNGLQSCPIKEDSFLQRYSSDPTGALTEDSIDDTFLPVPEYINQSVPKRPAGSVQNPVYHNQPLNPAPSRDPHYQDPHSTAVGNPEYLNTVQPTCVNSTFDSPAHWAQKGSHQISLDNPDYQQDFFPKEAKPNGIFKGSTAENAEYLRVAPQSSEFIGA
How it was run: as §3

| Structure (SMILES) | IC50 (CLK1) | IC50 (CLK3) | IC50 (CLK2) | IC50 (CLK4) | IC50 [1] | IC50 (EGFR (D770_N771insNPG)) | IC50 (EGFR L858R mutant) | IC50 [2] | IC50 (EGFR L858R/T790M mutant) | IC50 (EGFR WT) | IC50 (EGFR Δ746-750 mutant) |
| --- | --- | --- | --- | --- | --- | --- | --- | --- | --- | --- | --- |
| C[C@H]1CN(C)Cc2c(c(C#N)nn2CCO)/C=C/c2n[nH]c3ccc(cc23)-c2cnn(C)c2O1 [Example 208, (10S,17E)-14-(2-hydroxyethyl)-8,10,12-trimethyl-2,10,11,12,13,14-hexahydro-8H-3,5-ethenotripyrazolo[3,4-f:3′,4′-j:4″,3″-n][1,4]oxazacyclopentadecine-16-carbonitrile] | 0.59 nM | 220 nM | 0.13 nM | 1.53 nM |  |  |  |  |  |  |  |
| CCN1Cc2c(c(OC(C)C)nn2C[C@H](C)O)/C=C/c2n[nH]c3cc(F)c(cc23)-c2cnn(C)c2O[C@@H](C)C1 [Example 296, (2S)-1-{(10S,17E)-12-ethyl-19-fluoro-8,10-dimethyl-16-[(propan-2-yl)oxy]-2,8,10,11,12,13-hexahydro-14H-3,5-ethenotripyrazolo[3,4-f:3′,4′-j:4″,3″-n][1,4]oxazacyclopentadecin-14-yl}propan-2-ol] | 1.2 nM | 33.4 nM | 1.15 nM | 1.57 nM |  |  |  |  |  |  |  |
| Cc1c2c(nn1[C@H]1CCOC[C@@H]1O)OCCCOc1c(cnn1C)-c1ccc3[nH]nc(c3c1)/C=C/2 (racemic) [Example 87, (rac)-1,5-anhydro-2,3-dideoxy-3-[(17E)-8,16-dimethyl-2,8,11,12-tetrahydro-10H,15H-3,5-etheno[1,5]dioxacyclopentadecino[10,11-c:15,14-c′:6,7-c″ ]tripyrazol-15-yl]-L-threo-pentitol] |  |  |  |  | > 1000 nM | > 1000 nM | > 1000 nM | > 1000 nM | > 1000 nM | > 1000 nM | > 1000 nM |
| Cc1nn(CCO)c2c1/C=C/c1n[nH]c3ccc(cc13)-c1cnn(C)c1CN(C)CCO2 [Example 56, 2-[(17E)-8,10,16-trimethyl-2,8,9,10,11,12-hexahydro-14H-3,5-ethenotripyrazolo[3,4-f:4′,3′-j:4″,3″- n][1,4]oxazacyclopentadecin-14-yl]ethan-1-ol] |  |  |  |  | 8.48 nM | 50 nM | 22.2 nM | 1.12 nM | 1.22 nM | 42.7 nM | 15 nM |
| C[C@H]1CN(C)Cc2c(c(OC3CN(S(C)(=O)=O)C3)nn2C)/C=C/c2n[nH]c3ccc(cc23)-c2cnn(C)c2O1 [Example 150, (10S,17E)-16-{[1-(methanesulfonyl)azetidin-3-yl]oxy}-8,10,12,14-tetramethyl-2,10,11,12,13,14-hexahydro-8H-3,5-ethenotripyrazolo[3,4-f:3′,4′-j:4″,3″-n][1,4]oxazacyclopentadecine] |  |  |  |  | 2.58 nM | 33.4 nM | 2.31 nM | 0.37 nM | 0.45 nM | 6.36 nM | 3.21 nM |
| CC(C)Oc1nn(CCO)c2c1/C=C/c1n[nH]c3ccc(cc13)-c1cnn(C)c1O[C@H](C)[C@H]1CCCN1C2 [Example 253, 2-[(8aR,9R,19E)-9,11-dimethyl-1-[(propan-2-yl)oxy]-7,8,8a,9,11,17-hexahydro-6H-14,16-ethenotripyrazolo[3,4-f:3′,4′-j:4″,3″-n]pyrrolo[2,1-c][1,4]oxazacyclopentadecin-3(4H)-yl]ethan-1-ol] |  |  |  |  | 1.98 nM | 3.21 nM | 1.66 nM | 5.27 nM | 2.55 nM | 1.63 nM | 0.75 nM |
| CC(C)Oc1nn([C@@H](C)CO)c2c1/C=C/c1n[nH]c3ccc(cc13)-c1cnn(C)c1O[C@H](C)CN(C(C)C)C2 [Example 207, (2S)-2-{(10R,17E)-8,10-dimethyl-12-(propan-2-yl)-16-[(propan-2-yl)oxy]-2,8,10,11,12,13-hexahydro-14H-3,5-ethenotripyrazolo[3,4-f:3′,4′-j:4″,3″- n][1,4]oxazacyclopentadecin-14-yl}propan-1-ol] |  |  |  |  | > 1000 nM | > 1000 nM | > 1000 nM | > 1000 nM | > 1000 nM | > 1000 nM | > 1000 nM |
| CN1CCN(Cc2ccc3c(c2)O[C@@H]2CCN(CCOc4c(cnn4C)-c4ccc5[nH]nc(c5c4)/C=C/3)C2=O)CC1 [Example 92, (10R,16E)-3-methyl-13-[(4-methylpiperazin-1-yl)methyl]-3,5,6,9,10,19-hexahydro-8H-20,22-etheno-7,10-methanodipyrazolo[3,4-i:4′,3′-m][1,8,5]benzodioxazacyclooctadecin-25-one] |  |  |  |  | 6.65 nM | 6.34 nM | 4.1 nM | 3.26 nM | 0.41 nM | 14.5 nM | 7.95 nM |

Further lines, results first:

| IC50 (CLK1) | IC50 (CLK3) | IC50 (CLK2) | IC50 (CLK4) | IC50 [1] | IC50 (EGFR (D770_N771insNPG)) | IC50 (EGFR L858R mutant) | IC50 [2] | IC50 (EGFR L858R/T790M mutant) | IC50 (EGFR WT) | IC50 (EGFR Δ746-750 mutant) | Structure (SMILES) |
| --- | --- | --- | --- | --- | --- | --- | --- | --- | --- | --- | --- |
|  |  |  |  | 4.09 nM | 6.79 nM | 4.02 nM | 1.9 nM | 0.57 nM | 17.7 nM | 1.65 nM | CN1CCN(c2ccc3c(c2)OC2CCN(CCOc4c(cnn4C)-c4ccc5[nH]nc(c5c4)/C=C/3)C2=O)CC1 (stereo in doubt) [Example 131] |
|  |  |  |  | 1.94 nM | 107 nM | 37.1 nM | 1.42 nM | 0.69 nM | 71.7 nM | 3.61 nM | CCOc1nn(CCO)c2c1/C=C/c1n[nH]c3ccc(cc13)-c1cnn(C)c1O[C@H](C)CN(C(C)=O)C2 [Example 217, 1-[(10R,17E)-16-ethoxy-14-(2-hydroxyethyl)-8,10-dimethyl-2,8,10,11,13,14-hexahydro-12H-3,5-ethenotripyrazolo[3,4-f:3′,4′-j:4″,3″-n][1,4]oxazacyclopentadecin-12-yl]ethan-1-one] |
|  |  |  |  | 422 nM | > 1000 nM | 1580 nM | 31.6 nM | 56.7 nM | > 1000 nM | 472 nM | CCOc1nn(CCO)c2c1/C=C/c1n[nH]c3ccc(cc13)-c1cnn(C)c1O[C@@H]1CN(C)C[C@H]1N(C)C2 (single isomer, unassigned) [Ex. 271] |
|  |  |  |  | 9.44 nM | 527 nM | 30.5 nM | 8.44 nM | 36.4 nM | 62.1 nM | 18.3 nM | CCOc1nn(CCO)c2c1/C=C/c1n[nH]c3cc(F)c(cc13)-c1c(C)nn(C)c1O[C@@H](C)CN(C(C)C)C2 [Example 239, 2-[(10S,17E)-16-ethoxy-19-fluoro-6,8,10-trimethyl-12-(propan-2-yl)-2,8,10,11,12,13-hexahydro-14H-3,5-ethenotripyrazolo[3,4-f:3′,4′-j:4″,3″-n][1,4]oxazacyclopentadecin-14-yl]ethan-1-ol] |
|  |  |  |  | 577 nM | > 1000 nM | > 1000 nM | 60.4 nM | 282 nM | > 1000 nM | 971 nM | C[C@H]1CN(C)Cc2c(c(CN(C)C)nn2CCO)/C=C/c2n[nH]c3ccc(cc23)-c2cnn(C)c2O1 [Ex. 266, 2-{(10S,17E)-16-[(dimethylamino)methyl]-8,10,12-trimethyl-2,8,10,11,12,13-hexahydro-14H-3,5-ethenotripyrazolo[3,4-f:3′,4′-j:4″,3″-n][1,4]oxazacyclopentadecin-14-yl}ethan-1-ol] |
|  |  |  |  | 68.5 nM | 111 nM | 34.8 nM | 10.8 nM | 2.49 nM | 107 nM | 57.6 nM | Cc1nn(C)c2c1/C=C/c1n[nH]c3ccc(cc13)-c1cnn(C)c1CN(C)[C@@H](C)CO2 [Example 106, (11S,17E)-8,10,11,14,16-pentamethyl-2,9,10,11,12,14-hexahydro-8H-3,5-ethenotripyrazolo[3,4-f:4′,3′-j:4″,3″-n][1,4]oxazacyclopentadecine] |

Reference: patent publication US20250353864A1, “INDAZOLE CONTAINING MACROCYCLES AND THEIR USE” (BLOSSOMHILL THERAPEUTICS, INC., priority 2022, published 2025)
